Key:
Human M3 receptor = Human M3 receptor (Homo sapiens, UniProt P20309); conditions: read-out: M3 binding affinity
Human β2 adrenoceptor = Human β2 adrenoceptor (Homo sapiens, UniProt P07550); conditions: read-out: B2 binding affinity
Human β2 adrenoceptor, sequence (P07550 whole entry): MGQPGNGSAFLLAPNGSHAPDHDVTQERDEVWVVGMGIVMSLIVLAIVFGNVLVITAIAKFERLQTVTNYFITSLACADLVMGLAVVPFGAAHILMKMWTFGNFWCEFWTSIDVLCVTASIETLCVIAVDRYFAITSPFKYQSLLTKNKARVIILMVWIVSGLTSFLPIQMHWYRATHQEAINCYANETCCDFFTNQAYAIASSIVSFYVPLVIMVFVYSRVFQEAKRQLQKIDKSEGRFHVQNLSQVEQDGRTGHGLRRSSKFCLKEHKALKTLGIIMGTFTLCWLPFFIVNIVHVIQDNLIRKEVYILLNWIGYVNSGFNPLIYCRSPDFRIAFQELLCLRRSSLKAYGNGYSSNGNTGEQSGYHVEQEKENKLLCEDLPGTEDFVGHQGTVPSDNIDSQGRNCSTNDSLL

Human M3 receptor, sequence (P20309 whole entry): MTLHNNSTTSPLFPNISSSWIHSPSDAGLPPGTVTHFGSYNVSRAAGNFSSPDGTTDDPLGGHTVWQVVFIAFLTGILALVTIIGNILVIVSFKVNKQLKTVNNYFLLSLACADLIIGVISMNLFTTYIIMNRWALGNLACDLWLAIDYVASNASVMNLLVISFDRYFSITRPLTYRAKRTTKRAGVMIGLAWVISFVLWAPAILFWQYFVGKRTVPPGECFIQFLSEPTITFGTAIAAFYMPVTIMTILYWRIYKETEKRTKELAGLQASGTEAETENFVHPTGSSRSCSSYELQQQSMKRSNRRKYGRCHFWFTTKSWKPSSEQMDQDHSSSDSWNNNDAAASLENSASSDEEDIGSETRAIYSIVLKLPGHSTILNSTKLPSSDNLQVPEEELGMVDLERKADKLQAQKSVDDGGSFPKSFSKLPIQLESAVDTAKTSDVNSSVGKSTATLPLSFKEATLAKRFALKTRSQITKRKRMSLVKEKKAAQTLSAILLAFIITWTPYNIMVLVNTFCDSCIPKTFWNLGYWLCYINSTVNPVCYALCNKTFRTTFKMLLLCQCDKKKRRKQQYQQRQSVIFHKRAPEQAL

SMILES	IC50 (Human M3 receptor)	IC50 (Human β2 adrenoceptor)
O=C(NC1CCN(C(=O)COc2cccc([C@](O)(C(=O)OCC3CCN(Cc4ccccc4)CC3)c3ccccc3)c2)CC1)c1ccc(CCNC[C@H](O)c2ccc(O)c3[nH]c(=O)ccc23)cc1 [Compound 92, (1-benzylpiperidin-4-yl)methyl (S)-2-hydroxy-2-(3-(2-(4-(4-(2-(((R)-2-hydroxy-2-(8-hydroxy-2-oxo-1,2-dihydroquinolin-5-yl)ethyl)amino)ethyl)benzamido)piperidin-1-yl)-2-oxoethoxy)phenyl)-2-phenylacetate]	< 0.3 nM	< 0.3 nM
O=C(COc1cccc([C@](O)(C(=O)OCC2CCN(Cc3ccccc3)CC2)c2ccccc2)c1)N1CC2(C1)CN(C(=O)c1ccc(CCNC[C@H](O)c3ccc(O)c4[nH]c(=O)ccc34)cc1)C2 [Compound 93, (1-benzylpiperidin-4-yl)methyl (S)-2-hydroxy-2-(3-(2-(6-(4-(2-(((R)-2-hydroxy-2-(8-hydroxy-2-oxo-1,2-dihydroquinolin-5-yl)ethyl)amino)ethyl)benzoyl)-2,6-diazaspiro[3.3]heptan-2-yl)-2-oxoethoxy)phenyl)-2-phenylacetate]	0.3 to 3 nM	< 0.3 nM
O=C(COc1cccc([C@](O)(C(=O)OCC2CCN(Cc3ccccc3)CC2)c2ccccc2)c1)N1CC2(CCN(C(=O)c3ccc(CCNC[C@H](O)c4ccc(O)c5[nH]c(=O)ccc45)cc3)CC2)C1 [Compound 94, (1-benzylpiperidin-4-yl)methyl (S)-2-hydroxy-2-(3-(2-(7-(4-(2-(((R)-2-hydroxy-2-(8-hydroxy-2-oxo-1,2-dihydroquinolin-5-yl)ethyl)amino)ethyl)benzoyl)-2,7-diazaspiro[3.5]nonan-2-yl)-2-oxoethoxy)phenyl)-2-phenylacetate]	< 0.3 nM	< 0.3 nM
O=C(COc1cccc([C@](O)(C(=O)OCC2CCN(Cc3ccccc3)CC2)c2ccccc2)c1)N1CCC2(CC1)CCN(C(=O)c1ccc(CCNC[C@H](O)c3ccc(O)c4[nH]c(=O)ccc34)cc1)CC2 [Compound 95, (1-benzylpiperidin-4-yl)methyl (S)-2-hydroxy-2-(3-(2-(9-(4-(2-(((R)-2-hydroxy-2-(8-hydroxy-2-oxo-1,2-dihydroquinolin-5-yl)ethyl)amino)ethyl)benzoyl)-3,9-diazaspiro[5.5]undecan-3-yl)-2-oxoethoxy)phenyl)-2-phenylacetate]	< 0.3 nM	< 0.3 nM
O=C(COc1cccc([C@](O)(C(=O)OCC2CCN(Cc3ccccc3)CC2)c2ccccc2)c1)N1CCC2(CC1)CN(C(=O)c1ccc(CCNC[C@H](O)c3ccc(O)c4[nH]c(=O)ccc34)cc1)C2 [Compound 96, (1-benzylpiperidin-4-yl)methyl (S)-2-hydroxy-2-(3-(2-(2-(4-(2-(((R)-2-hydroxy-2-(8-hydroxy-2-oxo-1,2-dihydroquinolin-5-yl)ethyl)amino)ethyl)benzoyl)-2,7-diazaspiro[3.5]nonan-7-yl)-2-oxoethoxy)phenyl)-2-phenylacetate]	< 0.3 nM	< 0.3 nM
O=C(COc1cccc([C@](O)(C(=O)OCC2CCN(Cc3ccccc3)CC2)c2ccccc2)c1)NCC1CCN(C(=O)c2ccc(CCNC[C@H](O)c3ccc(O)c4[nH]c(=O)ccc34)cc2)CC1 [Compound 97, (1-benzylpiperidin-4-yl)methyl (S)-2-hydroxy-2-(3-(2-(((1-(4-(2-(((R)-2-hydroxy-2-(8-hydroxy-2-oxo-1,2-dihydroquinolin-5-yl)ethyl)amino)ethyl)benzoyl)piperidin-4-yl)methyl)amino)-2-oxoethoxy)phenyl)-2-phenylacetate]	0.3 to 3 nM	< 0.3 nM
O=C(COc1cccc([C@](O)(C(=O)OCC2CCN(Cc3ccccc3)CC2)c2ccccc2)c1)N1CC2(CCCN(C(=O)c3ccc(CCNC[C@H](O)c4ccc(O)c5[nH]c(=O)ccc45)cc3)C2)C1 [Compound 98, (1-benzylpiperidin-4-yl)methyl (S)-2-hydroxy-2-(3-(2-(6-(4-(2-(((R)-2-hydroxy-2-(8-hydroxy-2-oxo-1,2-dihydroquinolin-5-yl)ethyl)amino)ethyl)benzoyl)-2,6-diazaspiro[3.5]nonan-2-yl)-2-oxoethoxy)phenyl)-2-phenylacetate]	0.3 to 3 nM	0.3 to 3 nM
O=C(COc1cccc([C@](O)(C(=O)OCC2CCN(Cc3ccccc3)CC2)c2ccccc2)c1)N1CCCC2(CCN(C(=O)c3ccc(CCNC[C@H](O)c4ccc(O)c5[nH]c(=O)ccc45)cc3)CC2)C1 [Compound 99, (1-benzylpiperidin-4-yl)methyl (S)-2-hydroxy-2-(3-(2-(9-(4-(2-(((R)-2-hydroxy-2-(8-hydroxy-2-oxo-1,2-dihydroquinolin-5-yl)ethyl)amino)ethyl)benzoyl)-2,9-diazaspiro[5.5]undecan-2-yl)-2-oxoethoxy)phenyl)-2-phenylacetate]	0.3 to 3 nM	0.3 to 3 nM
O=C(COc1cccc([C@](O)(C(=O)OCC2CCN(Cc3ccccc3)CC2)c2ccccc2)c1)N1CCOC2(CCN(C(=O)c3ccc(CCNC[C@H](O)c4ccc(O)c5[nH]c(=O)ccc45)cc3)CC2)C1 [Compound 100, (1-benzylpiperidin-4-yl)methyl (S)-2-hydroxy-2-(3-(2-(9-(4-(2-(((R)-2-hydroxy-2-(8-hydroxy-2-oxo-1,2-dihydroquinolin-5-yl)ethyl)amino)ethyl)benzoyl)-1-oxa-4,9-diazaspiro[5.5]undecan-4-yl)-2-oxoethoxy)phenyl)-2-phenylacetate]	< 0.3 nM	0.3 to 3 nM
O=C(COc1cccc([C@](O)(C(=O)OCC2CCN(Cc3ccccc3)CC2)c2ccccc2)c1)NC1CN(C(=O)c2ccc(CCNC[C@H](O)c3ccc(O)c4[nH]c(=O)ccc34)cc2)C1 [Compound 101, (1-benzylpiperidin-4-yl)methyl (S)-2-hydroxy-2-(3-(2-((1-(4-(2-(((R)-2-hydroxy-2-(8-hydroxy-2-oxo-1,2-dihydroquinolin-5-yl)ethyl)amino)ethyl)benzoyl)azetidin-3-yl)amino)-2-oxoethoxy)phenyl)-2-phenylacetate]	< 0.3 nM	< 0.3 nM
O=C(NC1CN(C(=O)COc2cccc([C@](O)(C(=O)OCC3CCN(Cc4ccccc4)CC3)c3ccccc3)c2)C1)c1ccc(CCNC[C@H](O)c2ccc(O)c3[nH]c(=O)ccc23)cc1 [Compound 102, (1-benzylpiperidin-4-yl)methyl (S)-2-hydroxy-2-(3-(2-(3-(4-(2-(((R)-2-hydroxy-2-(8-hydroxy-2-oxo-1,2-dihydroquinolin-5-yl)ethyl)amino)ethyl)benzamido)azetidin-1-yl)-2-oxoethoxy)phenyl)-2-phenylacetate]	< 0.3 nM	< 0.3 nM
O=C(COc1cccc([C@](O)(C(=O)OCC2CCN(Cc3ccccc3)CC2)c2ccccc2)c1)NCCNC(=O)c1ccc(CCNC[C@H](O)c2ccc(O)c3[nH]c(=O)ccc23)cc1 [Compound 103, (1-benzylpiperidin-4-yl)methyl (S)-2-hydroxy-2-(3-(2-((2-(4-(2-(((R)-2-hydroxy-2-(8-hydroxy-2-oxo-1,2-dihydroquinolin-5-yl)ethyl)amino)ethyl)benzamido)ethyl)amino)-2-oxoethoxy)phenyl)-2-phenylacetate]	< 0.3 nM	0.3 to 3 nM
O=C(COc1cccc([C@](O)(C(=O)OCC2CCN(Cc3ccccc3)CC2)c2ccccc2)c1)N[C@@H]1CCN(C(=O)c2ccc(CCNC[C@H](O)c3ccc(O)c4[nH]c(=O)ccc34)cc2)C1 [Compound 104, (1-benzylpiperidin-4-yl)methyl (S)-2-hydroxy-2-(3-(2-(((R)-1-(4-(2-(((R)-2-hydroxy-2-(8-hydroxy-2-oxo-1,2-dihydroquinolin-5-yl)ethyl)amino)ethyl)benzoyl)pyrrolidin-3-yl)amino)-2-oxoethoxy)phenyl)-2-phenylacetate]	< 0.3 nM	0.3 to 3 nM
O=C(COc1cccc([C@](O)(C(=O)OCC2CCN(Cc3ccccc3)CC2)c2ccccc2)c1)N[C@@H]1CCCN(C(=O)c2ccc(CCNC[C@H](O)c3ccc(O)c4[nH]c(=O)ccc34)cc2)C1 [Compound 105, (1-benzylpiperidin-4-yl)methyl (S)-2-hydroxy-2-(3-(2-(((R)-1-(4-(2-(((R)-2-hydroxy-2-(8-hydroxy-2-oxo-1,2-dihydroquinolin-5-yl)ethyl)amino)ethyl)benzoyl)piperidin-3-yl)amino)-2-oxoethoxy)phenyl)-2-phenylacetate]	0.3 to 3 nM	0.3 to 3 nM
O=C(COc1cccc([C@](O)(C(=O)OCC2CCN(Cc3ccccc3)CC2)c2ccccc2)c1)N[C@H]1CCCN(C(=O)c2ccc(CCNC[C@H](O)c3ccc(O)c4[nH]c(=O)ccc34)cc2)C1 [Compound 106, (1-benzylpiperidin-4-yl)methyl (S)-2-hydroxy-2-(3-(2-(((S)-1-(4-(2-(((R)-2-hydroxy-2-(8-hydroxy-2-oxo-1,2-dihydroquinolin-5-yl)ethyl)amino)ethyl)benzoyl)piperidin-3-yl)amino)-2-oxoethoxy)phenyl)-2-phenylacetate]	0.3 to 3 nM	0.3 to 3 nM
O=C(COc1cccc([C@](O)(C(=O)OCC2CCN(Cc3ccccc3)CC2)c2ccccc2)c1)N[C@H]1CCN(C(=O)c2ccc(CCNC[C@H](O)c3ccc(O)c4[nH]c(=O)ccc34)cc2)C1 [Compound 107, (1-benzylpiperidin-4-yl)methyl (S)-2-hydroxy-2-(3-(2-(((S)-1-(4-(2-(((R)-2-hydroxy-2-(8-hydroxy-2-oxo-1,2-dihydroquinolin-5-yl)ethyl)amino)ethyl)benzoyl)pyrrolidin-3-yl)amino)-2-oxoethoxy)phenyl)-2-phenylacetate]	0.3 to 3 nM	< 0.3 nM
O=C(N[C@H]1CCCN(C(=O)COc2cccc([C@](O)(C(=O)OCC3CCN(Cc4ccccc4)CC3)c3ccccc3)c2)C1)c1ccc(CCNC[C@H](O)c2ccc(O)c3[nH]c(=O)ccc23)cc1 [Compound 108, (1-benzylpiperidin-4-yl)methyl (S)-2-hydroxy-2-(3-(2-((S)-3-(4-(2-(((R)-2-hydroxy-2-(8-hydroxy-2-oxo-1,2-dihydroquinolin-5-yl)ethyl)amino)ethyl)benzamido)piperidin-1-yl)-2-oxoethoxy)phenyl)-2-phenylacetate]	0.3 to 3 nM	0.3 to 3 nM

— patent publication US9579314B2 (priority 2015, dated 2017)
